The molecules below were run against T1, GTPase KRas [1-37] (Homo sapiens, UniProt G3V5T7) (assay: inhibition of fluorescent GTP binding to wild-type Ras – biochemical, pyrazoline analogs, multiplex bead flow cytometry, SAR follow-up (AID 2047)). Conditions: not given.
T1 construct: 1-37
T1 sequence (G3V5T7 whole entry): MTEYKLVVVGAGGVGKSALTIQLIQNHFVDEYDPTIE

SMILES | EC50 [µM]
COc1ccc(C2CC(c3ccccc3)=NN2c2cccc(S(N)(=O)=O)c2)cc1 (centres undefined) [3-[3-(4-methoxyphenyl)-5-phenyl-3,4-dihydropyrazol-2-yl]benzenesulfonamide] | > 30
COc1ccc(C2=NN(c3ccc(S(N)(=O)=O)cc3)C(c3ccc(OC)cc3)C2)cc1 (centres undefined) [4-[3,5-bis(4-methoxyphenyl)-3,4-dihydropyrazol-2-yl]benzenesulfonamide] | > 30
COc1ccc(C2CC(c3ccsc3)=NN2c2ccc(S(N)(=O)=O)cc2)cc1 (centres undefined) [4-[3-(4-methoxyphenyl)-5-thiophen-3-yl-3,4-dihydropyrazol-2-yl]benzenesulfonamide] | > 30
COc1ccc(C2CC(c3cccc(OC)c3)=NN2c2ccc(S(N)(=O)=O)cc2)cc1 (centres undefined) [4-[5-(3-methoxyphenyl)-3-(4-methoxyphenyl)-3,4-dihydropyrazol-2-yl]benzenesulfonamide] | > 30
NS(=O)(=O)c1ccc(N2N=C(c3ccc(Br)cc3)CC2c2ccc(F)cc2)cc1 (centres undefined) [4-[5-(4-bromophenyl)-3-(4-fluorophenyl)-3,4-dihydropyrazol-2-yl]benzenesulfonamide] | > 30
COc1ccc(-c2cc(-c3ccccc3)nn2-c2ccc(S(N)(=O)=O)cc2)cc1 [4-[5-(4-methoxyphenyl)-3-phenylpyrazol-1-yl]benzenesulfonamide] | > 30
O=[N+]([O-])c1cccc(C2C[C-](c3ccc(F)cc3)N=[N+]2c2ccccc2)c1 (centres undefined) [5-(4-fluorophenyl)-3-(3-nitrophenyl)-2-phenyl-3,4-dihydropyrazole] | > 30
COc1ccc(C2CC(c3ccc(N(C)C)cc3)=NN2c2ccc(S(N)(=O)=O)cc2)cc1 (centres undefined) [KUC103422N] | > 30
COc1ccc(C2CC(c3cccs3)=NN2c2ccc(S(N)(=O)=O)cc2)cc1 (centres undefined) [KUC103438N] | > 30
NS(=O)(=O)c1ccc(N2N=C(c3ccccc3)CC2c2ccccc2Cl)cc1 (centres undefined) [KUC103446N] | > 30
COc1ccc(C2CC(c3ccccc3C(F)(F)F)=NN2c2ccc(S(N)(=O)=O)cc2)cc1 (centres undefined) [KUC103474N] | > 30
COc1ccc(C2CC(c3ccccc3)=NN2c2ccc(S(N)(=O)=O)cc2)cc1OC (centres undefined) [UNM-0000305823] | > 30
O=[N+]([O-])c1ccc([N+]2=N[C-](c3ccccc3)CC2c2ccc(O)cc2)cc1 (centres undefined) [UNM-0000305838] | > 30
CN(C)c1ccc(C2CC(c3ccc(Br)cc3)=NN2c2ccccc2)cc1 (centres undefined) [UNM-0000305846] | > 30
O=[N+]([O-])c1cccc(C2C[C-](c3ccccc3)N=[N+]2c2ccccc2)c1 (centres undefined) [UNM-0000305857] | > 30
FC(F)(F)c1cccc(N2N=C(c3ccc(Cl)cc3)CC2c2ccccc2Cl)c1 (centres undefined) [UNM-0000305859] | > 30
COc1ccc(C2=NN(c3ccc(Cl)cc3)C(c3ccccc3F)C2)cc1 (centres undefined) [UNM-0000305863] | > 30
COc1ccc(C2CC(c3ccccc3)=NN2c2ccc(C(N)=O)cc2)cc1 (centres undefined) [UNM-0000305870] | > 30
COc1ccc(C2CC(c3ccccc3)=NN2c2ccc(C(=O)O)cc2)cc1 (centres undefined) [UNM-0000306085] | > 30
COc1ccc(C2CC(c3ccccc3F)=NN2c2ccc(S(N)(=O)=O)cc2)cc1 (centres undefined) [UNM-0000306110] | > 30
COc1ccc(C2CC(c3ccccc3Br)=NN2c2ccc(S(N)(=O)=O)cc2)cc1 (centres undefined) [UNM-0000306112] | > 30
COc1ccc(C2CC(c3ccc(Br)cc3)=NN2c2ccc(S(N)(=O)=O)cc2)cc1 (centres undefined) [UNM-0000306138] | > 30
NS(=O)(=O)c1ccc(N2N=C(c3ccccc3)CC2c2cccc(Br)c2)cc1 (centres undefined) [UNM-0000306147] | > 30
Cc1ccccc1C1CC(c2ccccc2)=NN1c1ccc(S(N)(=O)=O)cc1 (centres undefined) [UNM-0000306148] | > 30
NS(=O)(=O)c1ccc(N2N=C(c3ccccc3)CC2c2ccc(Br)cc2)cc1 (centres undefined) [UNM-0000306160] | > 30
NS(=O)(=O)c1ccc(N2N=C(c3ccccc3)CC2c2cccc(Cl)c2)cc1 (centres undefined) [UNM-0000306161] | > 30

Next, values leading:

EC50 [µM] | SMILES
> 30 | NS(=O)(=O)c1ccc(N2N=C(c3ccccc3)CC2c2ccccc2)cc1 (centres undefined) [4-(3,5-diphenyl-3,4-dihydropyrazol-2-yl)benzenesulfonamide]
> 30 | NS(=O)(=O)c1ccc(N2N=C(c3ccccc3)CC2c2ccccc2Br)cc1 (centres undefined) [4-[3-(2-bromophenyl)-5-phenyl-3,4-dihydropyrazol-2-yl]benzenesulfonamide]
> 30 | COc1ccccc1C1CC(c2ccccc2)=NN1c1ccc(S(N)(=O)=O)cc1 (centres undefined) [4-[3-(2-methoxyphenyl)-5-phenyl-3,4-dihydropyrazol-2-yl]benzenesulfonamide]
> 30 | COc1cccc(C2CC(c3ccccc3)=NN2c2ccc(S(N)(=O)=O)cc2)c1 (centres undefined) [4-[3-(3-methoxyphenyl)-5-phenyl-3,4-dihydropyrazol-2-yl]benzenesulfonamide]
> 30 | NS(=O)(=O)c1ccc(N2N=C(c3ccccc3)CC2c2ccc(Cl)cc2)cc1 (centres undefined) [4-[3-(4-chlorophenyl)-5-phenyl-3,4-dihydropyrazol-2-yl]benzenesulfonamide]
> 30 | COc1ccc(C2CC(c3ccc(C(F)(F)F)cc3)=NN2c2ccc(S(N)(=O)=O)cc2)cc1 (centres undefined) [4-[3-(4-methoxyphenyl)-5-[4-(trifluoromethyl)phenyl]-3,4-dihydropyrazol-2-yl]benzenesulfonamide]
> 30 | COc1ccc(C2CC(C)=NN2c2ccc(S(N)(=O)=O)cc2)cc1 (centres undefined) [4-[3-(4-methoxyphenyl)-5-methyl-3,4-dihydropyrazol-2-yl]benzenesulfonamide]
> 30 | COc1ccc(C2CC(c3ccccc3Cl)=NN2c2ccc(S(N)(=O)=O)cc2)cc1 (centres undefined) [4-[5-(2-chlorophenyl)-3-(4-methoxyphenyl)-3,4-dihydropyrazol-2-yl]benzenesulfonamide]
> 30 | COc1ccc(C2CC(c3cccc(F)c3)=NN2c2ccc(S(N)(=O)=O)cc2)cc1 (centres undefined) [4-[5-(3-fluorophenyl)-3-(4-methoxyphenyl)-3,4-dihydropyrazol-2-yl]benzenesulfonamide]
> 30 | COc1ccc(C2CC(C3CCCCC3)=NN2c2ccc(S(N)(=O)=O)cc2)cc1 (centres undefined) [4-[5-cyclohexyl-3-(4-methoxyphenyl)-3,4-dihydropyrazol-2-yl]benzenesulfonamide]
> 30 | O=S(=O)(c1ccc(N2N=C(c3ccc(Br)cc3)CC2c2ccccc2)cc1)C(F)F (centres undefined) [5-(4-bromophenyl)-2-[4-(difluoromethylsulfonyl)phenyl]-3-phenyl-3,4-dihydropyrazole]
> 30 | FC(F)(F)c1ccccc1C1CC(c2ccc(Br)cc2)=NN1c1ccccc1 (centres undefined) [5-(4-bromophenyl)-2-phenyl-3-[2-(trifluoromethyl)phenyl]-3,4-dihydropyrazole]
> 30 | Cc1ccc(-c2cc(C(F)(F)F)nn2-c2ccc(S(N)(=O)=O)cc2)cc1 [Celecoxib]
> 30 | COc1ccc(C2CC(C(C)(C)C)=NN2c2ccc(S(N)(=O)=O)cc2)cc1 (centres undefined) [KUC103450N]
> 30 | Cc1ccccc1N1N=C(c2ccccc2)CC1c1ccc(N(C)C)cc1 (centres undefined) [N,N-dimethyl-4-[2-(2-methylphenyl)-5-phenyl-3,4-dihydropyrazol-3-yl]aniline]
> 30 | COc1ccc(C2CC(c3ccc(Br)cc3)=NN2c2ccccc2Cl)cc1 (centres undefined) [UNM-0000305832]
> 30 | COc1ccc(C2=NN(c3ccccc3)C(c3ccc(Cl)cc3)C2)cc1 (centres undefined) [UNM-0000305833]
> 30 | O=S(=O)(O)c1ccc(N2N=C(c3ccccc3)CC2c2ccccc2)cc1 (centres undefined) [UNM-0000305834]
> 30 | Cc1cccc(N2N=C(c3ccccc3)CC2c2ccccc2)c1 (centres undefined) [UNM-0000305835]
> 30 | CN(C)c1ccc(C2CC(c3ccc(Cl)cc3)=NN2c2ccccc2)cc1 (centres undefined) [UNM-0000305847]
> 30 | COc1ccc(C2=NN(c3ccccc3)C(c3ccc(OC)c(OC)c3C(=O)O)C2)cc1 (centres undefined) [UNM-0000305848]
> 30 | Cc1ccccc1[N+]1=N[C-](c2ccccc2)CC1c1cccc([N+](=O)[O-])c1 (centres undefined) [UNM-0000305854]
> 30 | COc1ccccc1N1N=C(c2ccccc2)CC1c1ccccc1 (centres undefined) [UNM-0000305855]
> 30 | COc1ccc(C2CC(c3ccc(F)cc3)=NN2c2ccccc2)cc1OC (centres undefined) [UNM-0000305864]
> 30 | CN(C)c1ccc(C2CC(c3ccc(F)cc3)=NN2c2ccccc2)cc1 (centres undefined) [UNM-0000305866]
> 30 | COc1ccc(C2CC(c3cccc(Br)c3)=NN2c2ccc(S(N)(=O)=O)cc2)cc1 (centres undefined) [UNM-0000306113]
> 30 | COc1ccc(C2CC(c3cccc(Cl)c3)=NN2c2ccc(S(N)(=O)=O)cc2)cc1 (centres undefined) [UNM-0000306134]
> 30 | COc1ccc(C2CC(c3ccccc3C)=NN2c2ccc(S(N)(=O)=O)cc2)cc1 (centres undefined) [UNM-0000306152]
> 30 | COc1ccc(C2CC(c3cccc(C)c3)=NN2c2ccc(S(N)(=O)=O)cc2)cc1 (centres undefined) [UNM-0000306153]

Same assay, conditions: inactive by the depositor's call

SMILES | EC50 [µM]
CN(C)c1ccc(C2CC(c3ccccc3)=NN2c2ccccc2)cc1 (centres undefined) [4-(2,5-diphenyl-3,4-dihydropyrazol-3-yl)-N,N-dimethylaniline] | 0.049
COc1ccc(C2CC(c3ccc(Cl)cc3)=NN2c2ccccc2)cc1OC (centres undefined) [UNM-0000305858] | 0.079

Now from value to molecule:

EC50 [µM] | SMILES
0.028 | COc1ccc(C2CC(c3ccc(F)cc3)=NN2c2ccc(S(N)(=O)=O)cc2)cc1 (centres undefined) [4-[5-(4-fluorophenyl)-3-(4-methoxyphenyl)-3,4-dihydropyrazol-2-yl]benzenesulfonamide]
13.5 | COc1ccc(C2=NN(c3ccccc3F)C(c3ccc(F)cc3)C2)cc1 (centres undefined) [UNM-0000305860]
